Assay results taken from patent publication US20190038628A1, “USE OF INHIBITORS OF THE ACTIVITY OR FUNCTION OF PI3K FOR THE TREATMENT OF PRIMARY SJOGREN'S SYNDROME” (Novartis AG, priority 2016, published 2019).
Values joined by “and” are separate entries in the source; they are usually repeats but may differ in a detail not shown here. Identical values can stand only once. Like-named read-outs stand apart in the source and are kept apart here.

How the values were obtained:
[1] = tested on: Akt-phosphorylation in IgM+ B cells; assay: Time-dependent inhibition of Akt-phosphorylation ex vivo by a single oral dose in rats; set-up: species or system Lewis rats; conditions: 10 mg/kg p.o. single dose; for inhibition at 10 mg/kg: Rattus norvegicus, B-cell, po; for % inhibition of pAkt in IgM+ B cells: rat, individual rats 1-4, 10 mg/kg
Description: All experiments were performed with adult male Lewis rats (LEW/Han/Hsd, Charles River, Germany and LEW/Orl@Rj, Janvier, France), weighing 220-280 g.
The suspension for administration was freshly prepared and stored in the dark at room temperature. 14.8 mg of compound A was suspended in 5.92 ml CMC 0.5% with 0.5% Tween80. The milky, homogeneous suspensions were then applied to the animal. The test substances were administered p.o. at in a volume of 4 ml/kg body weight resulting in an oral dose of 10 mg/kg.
Animals were anaesthetized with isoflurane using a Fluvac airflow system. Whole blood was collected sublingually pre-dose and at 1, 2, 4, 6, 8, 10, 12 and 24 hours post-dose. For pharmacodynamic analysis 100 μl rat blood was collected per time point in Eppendorf tubes with 30 IU sodium heparin (B. Braun, Melsungen, Germany; 5000 I.U./ml). For pharmacokinetic analysis 150 μl rat blood was collected per time point in EDTA coated Eppendorf (Milian cat# TOM-14) tubes.
For ex vivo analysis of blood from drug-treated animals, […] heparinized blood was mixed in 5 ml U-bottom tubes (BD, cat#352063) with […] of RPMI medium (Gibco, cat#31870) immediately after blood collection, and activated with 10 μl of anti-rat IgM/rIL-4 at a final concentration of anti-rat IgM of […] and rIL-4 of 10 ng/ml. Control samples were left unstimulated. Samples were mixed thoroughly and incubated for 10 minutes at 37° C. in the water bath.
After incubation, 2 ml of pre-warmed (37° C. in water bath) BD Phosflow Lyse/Fix buffer was added per tube. Samples were mixed thoroughly and incubated for 20 minutes at 37° C. in the water bath. Then samples were centrifuged at 400 g for 5 minutes. After centrifugation 2 ml of BD Phosflow Perm/wash buffer was added per tube. Samples were mixed thoroughly and incubated at room temperature (RT) in the dark for 10 minutes. Thereafter, the samples were snap-frozen on dry ice and then stored at −80° C. until FACS staining.
For thawing, all samples were incubated for 10 minutes in the water bath at 25° C. After centrifugation at 400 g for 5 minutes the pellets were washed with 2 ml of BD Phosflow Perm/wash buffer and again centrifuged at 400 g for 5 minutes. Supernatants were removed. For analysis of pAkt, samples were stained with PE-labeled anti-rat IgM (BD, cat#553888) to allow gating on B cells in FACS analysis. In addition, samples were stained with Alexa647 conjugated anti-phospho-Akt (Ser473; BD, cat#560343). Staining procedures were performed in a total volume of 100 μl BD Phosflow Perm/wash buffer at RT for 30 minutes in the dark. After incubation, samples were washed with 2 ml of BD Phosflow Perm/wash buffer and centrifuged at 400 g for 5 minutes and the pellets were resuspended in 300 μl BD Stain Buffer (BD, cat#554656). Samples were kept on ice until data were acquired on an LSRII flow cytometer (BD Biosciences) using DIVA software (version 6.1.2). Lymphocytes were gated in the FSC/SSC dot blot according to size and granularity and further analyzed for expression of IgM and phosphorylation of Akt. Data were calculated from dot blots or histograms as percentage of cells positively stained for Akt-phosphorylation within the IgM+ population.
The effects of the drugs ex vivo were expressed as inhibition of Akt-phosphorylation measured by flow cytometry. The percentage inhibition of Akt-phosphorylation was calculated by the following formula: […]
Group of four Lewis rats were treated with a single oral dose of 10 mg/kg of compound A. At indicated time points, 50% rat whole blood was stimulated with anti-rat IgM/rIL-4 and Akt-phosphorylation was determined as described in the Method section.

Murine B cells = assay: Mouse B cell proliferation following BCR stimulation; type: cell-based; conditions: Mouse spleen, stimulus Anti-IgM, mean of at least two experiments
Description: Murine B cells were stimulated via BCR by anti-IgM antibody in the presence of titrated amounts of compounds as described in (Julius et al 1984) and proliferation was assessed by incorporation of radioactive ^3H-Thymidine.

CCC(=O)N1CC[C@H](Nc2ncnc3c2CN(c2cnc(OC)c(C(F)(F)F)c2)CC3)C1 [Compound A, 1-{(S)-3-[6-(6-Methoxy-5-trifluoromethyl-pyridin-3-yl)-5,6,7,8-tetrahydro-pyrido[4,3-d]pyrimidin-4-ylamino]-pyrrolidin-1-yl}-propan-1-one]
inhibition at 10 mg/kg ([1]; 0 h, time 0 h (pre-dose), mean of four animals, read-out: % inhibition of pAkt in IgM+ B cells, Average): 0%
inhibition at 10 mg/kg ([1]; 1 h, time 1 h, individual rats 1-4, read-out: % inhibition of pAkt in IgM+ B cells): 100%
inhibition at 10 mg/kg ([1]; 1 h, time 1 h, mean of four animals, read-out: % inhibition of pAkt in IgM+ B cells, Average): 98.2%
inhibition at 10 mg/kg ([1]; 2 h, time 2 h, individual rats 1-4, read-out: % inhibition of pAkt in IgM+ B cells): 101%
inhibition at 10 mg/kg ([1]; 2 h, time 2 h, mean of four animals, read-out: % inhibition of pAkt in IgM+ B cells, Average): 99.6%
inhibition at 10 mg/kg ([1]; 4 h, time 4 h, mean of four animals, read-out: % inhibition of pAkt in IgM+ B cells, Average): 95.1%
inhibition at 10 mg/kg ([1]; 6 h, time 6 h, mean of four animals, read-out: % inhibition of pAkt in IgM+ B cells, Average): 88.2%
inhibition at 10 mg/kg ([1]; 8 h, time 8 h, mean of four animals, read-out: % inhibition of pAkt in IgM+ B cells, Average): 79.4%
inhibition at 10 mg/kg ([1]; 10 h, time 10 h, individual rats 1-4, read-out: % inhibition of pAkt in IgM+ B cells): 69%
inhibition at 10 mg/kg ([1]; 10 h, time 10 h, mean of four animals, read-out: % inhibition of pAkt in IgM+ B cells, Average): 70.7%
inhibition at 10 mg/kg ([1]; 12 h, time 12 h, individual rats 1-4, read-out: % inhibition of pAkt in IgM+ B cells): 74.3%
inhibition at 10 mg/kg ([1]; 12 h, time 12 h, mean of four animals, read-out: % inhibition of pAkt in IgM+ B cells, Average): 72.1%
inhibition at 10 mg/kg ([1]; 24 h, time 24 h, mean of four animals, read-out: % inhibition of pAkt in IgM+ B cells, Average): 30.2%
% inhibition of pAkt in IgM+ B cells ([1]; time 0 h (pre-dose)): −2.0% and 15.7% and 6.9% and −20.6%
% inhibition of pAkt in IgM+ B cells ([1]; time 1 h): 95.6% and 99.1%
% inhibition of pAkt in IgM+ B cells ([1]; time 2 h): 97.3% and 101.8%
% inhibition of pAkt in IgM+ B cells ([1]; time 4 h): 93.8% and 105.3% and 81.4%
% inhibition of pAkt in IgM+ B cells ([1]; time 6 h): 76.1% and 99.1% and 94.7% and 83.1%
% inhibition of pAkt in IgM+ B cells ([1]; time 8 h): 83.1% (2×) and 85.8% and 65.4%
% inhibition of pAkt in IgM+ B cells ([1]; time 10 h): 76.9% and 62.7%
% inhibition of pAkt in IgM+ B cells ([1]; time 12 h): 71.6% and 73.4%
% inhibition of pAkt in IgM+ B cells ([1]; time 24 h): 30.8% and 40.6% and 37.0% and 12.2%
IC50 (Murine B cells): 8 nM
